The text below walks through data of patent US10150760B2, “Compounds for use in preparing heterocyclic triazole agonists of the APJ receptor” (AMGEN INC., priority 2016, dated 2018).

This assay addresses human APJ receptor (Homo sapiens (Human), UniProt P35414). The assay is described as follows: [35S]GTPγS binding assay on membranes from CHO cells stably expressing human APJ receptor. Conditions: read-out: Activity hAPJ SPA EC50 IP. The class given is biochemical. In short, it runs like this:
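Agonist-driven [35S]GTPγS (0.2 nM) binding was measured over 90 min at room temperature on human APJ-expressing CHO membranes with bead capture, in buffer containing 3 μM GDP, 200 mM NaCl and 5 mM MgCl2 (pH 7.5). Excess unlabelled GTPγS (100 μM) gave nonspecific signal; EC50 from non-linear fits.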
(GTPγS is a poorly hydrolysed GTP analogue; its binding reports G protein activation.)

Chain of human APJ receptor (P35414 whole entry): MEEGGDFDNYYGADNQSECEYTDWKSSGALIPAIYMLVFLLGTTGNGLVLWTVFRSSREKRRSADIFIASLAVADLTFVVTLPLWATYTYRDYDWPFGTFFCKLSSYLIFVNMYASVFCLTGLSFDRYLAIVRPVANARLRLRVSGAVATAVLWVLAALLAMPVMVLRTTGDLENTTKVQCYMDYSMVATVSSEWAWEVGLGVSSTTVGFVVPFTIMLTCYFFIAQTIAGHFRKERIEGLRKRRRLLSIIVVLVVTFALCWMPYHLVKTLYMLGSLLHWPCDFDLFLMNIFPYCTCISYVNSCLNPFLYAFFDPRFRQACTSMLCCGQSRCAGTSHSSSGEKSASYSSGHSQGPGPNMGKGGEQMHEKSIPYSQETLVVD

Take `COc1cccc(OC)c1-n1c(NS(=O)(=O)[C@@H](C)[C@H](C)c2ncc(C)cn2)nnc1[C@@H]1CCO[C@@H]1C` (single isomer, unassigned) [Example 123.0, (2S,3R)-N-(4-(2,6-dimethoxyphenyl)-5-((2R,3S)-2-methyltetrahydrofuran-3-yl)-4H-1,2,4-triazol-3-yl)-3-(5-methylpyrimidin-2-yl)butane-2-sulfonamide or (2S,3R)-N-(4-(2,6-dimethoxyphenyl)-5-((2S,3R)-2-methyltetrahydrofuran-3-yl)-4H-1,2,4-triazol-3-yl)-3-(5-methylpyrimidin-2-yl)butane-2-sulfonamide]: the concentration giving a half-maximal response (EC50) (in general, the midpoint of the concentration-response curve) amounted to 700 nM.
In the case of `CO[C@H](c1ncc(Cl)cn1)[C@H](C)S(=O)(=O)Nc1nnc([C@H]2CCOC2)n1C1(C)CC1` (single isomer, unassigned) [Example 124.0, (1R,2S)-1-(5-chloropyrimidin-2-yl)-1-methoxy-N-(4-(1-methylcyclopropyl)-5-((R)-tetrahydrofuran-3-yl)-4H-1,2,4-triazol-3-yl)propane-2-sulfonamide or (1R,2S)-1-(5-chloropyrimidin-2-yl)-1-methoxy-N-(4-(1-methylcyclopropyl)-5-((S)-tetrahydrofuran-3-yl)-4H-1,2,4-triazol-3-yl)propane-2-sulfonamide], the EC50 came out at 440 nM.
As for `CO[C@H](c1ncc(Cl)cn1)[C@H](C)S(=O)(=O)Nc1nnc([C@H]2CCOC2)n1C1(C)CC1` (single isomer, unassigned) [Example 125.0, (1R,2S)-1-(5-chloropyrimidin-2-yl)-1-methoxy-N-(4-(1-methylcyclopropyl)-5-((R)-tetrahydrofuran-3-yl)-4H-1,2,4-triazol-3-yl)propane-2-sulfonamide or (1R,2S)-1-(5-chloropyrimidin-2-yl)-1-methoxy-N-(4-(1-methylcyclopropyl)-5-((S)-tetrahydrofuran-3-yl)-4H-1,2,4-triazol-3-yl)propane-2-sulfonamide], the figure is 540 nM; as for `CO[C@H](c1ncc(Cl)cn1)[C@H](C)S(=O)(=O)Nc1nnc([C@H]2CCCOC2)n1C1(C)CC1` (single isomer, unassigned) [Example 126.0, (1R,2S)-1-(5-chloropyrimidin-2-yl)-1-methoxy-N-(4-(1-methylcyclopropyl)-5-((R)-tetrahydro-2H-pyran-3-yl)-4H-1,2,4-triazol-3-yl)propane-2-sulfonamide or (1R,2S)-1-(5-chloropyrimidin-2-yl)-1-methoxy-N-(4-(1-methylcyclopropyl)-5-((S)-tetrahydro-2H-pyran-3-yl)-4H-1,2,4-triazol-3-yl)propane-2-sulfonamide], 480 nM.
For `CO[C@H](c1ncc(Cl)cn1)[C@H](C)S(=O)(=O)Nc1nnc([C@H]2CCCOC2)n1C1(C)CC1` (single isomer, unassigned) [Example 127.0, (1R,2S)-1-(5-chloropyrimidin-2-yl)-1-methoxy-N-(4-(1-methylcyclopropyl)-5-((R)-tetrahydro-2H-pyran-3-yl)-4H-1,2,4-triazol-3-yl)propane-2-sulfonamide or (1R,2S)-1-(5-chloropyrimidin-2-yl)-1-methoxy-N-(4-(1-methylcyclopropyl)-5-((S)-tetrahydro-2H-pyran-3-yl)-4H-1,2,4-triazol-3-yl)propane-2-sulfonamide], the EC50 is 7.7 nM.
Turning to `CO[C@H](c1cnc(C)cn1)[C@H](C)S(=O)(=O)Nc1nnc([C@H]2CCOC2)n1C1(C)CC1` (single isomer, unassigned) [Example 128.0, (1R,2S)-1-methoxy-N-(4-(1-methylcyclopropyl)-5-((R)-tetrahydrofuran-3-yl)-4H-1,2,4-triazol-3-yl)-1-(5-methylpyrazin-2-yl)propane-2-sulfonamide or (1R,2S)-1-methoxy-N-(4-(1-methylcyclopropyl)-5-((S)-tetrahydrofuran-3-yl)-4H-1,2,4-triazol-3-yl)-1-(5-methylpyrazin-2-yl)propane-2-sulfonamide], the 50% effective concentration (EC50) came out at 790 nM.
For the compound `CO[C@H](c1cnc(C)cn1)[C@H](C)S(=O)(=O)Nc1nnc([C@H]2CCOC2)n1C1(C)CC1` (single isomer, unassigned) [Example 129.0, (1R,2S)-1-methoxy-N-(4-(1-methylcyclopropyl)-5-((R)-tetrahydrofuran-3-yl)-4H-1,2,4-triazol-3-yl)-1-(5-methylpyrazin-2-yl)propane-2-sulfonamide or (1R,2S)-1-methoxy-N-(4-(1-methylcyclopropyl)-5-((S)-tetrahydrofuran-3-yl)-4H-1,2,4-triazol-3-yl)-1-(5-methylpyrazin-2-yl)propane-2-sulfonamide], the EC50 was determined as 2100 nM.
Regarding `CO[C@H](c1cnc(C)cn1)[C@H](C)S(=O)(=O)Nc1nnc([C@H]2CCCOC2)n1C1(C)CC1` (single isomer, unassigned) [Example 130.0, (1R,2S)-1-methoxy-N-(4-(1-methylcyclopropyl)-5-((R)-tetrahydro-2H-pyran-3-yl)-4H-1,2,4-triazol-3-yl)-1-(5-methylpyrazin-2-yl)propane-2-sulfonamide or (1R,2S)-1-methoxy-N-(4-(1-methylcyclopropyl)-5-((S)-tetrahydro-2H-pyran-3-yl)-4H-1,2,4-triazol-3-yl)-1-(5-methylpyrazin-2-yl)propane-2-sulfonamide], the EC50 was 1800 nM.
In the case of `CO[C@H](c1cnc(C)cn1)[C@H](C)S(=O)(=O)Nc1nnc([C@H]2CCCOC2)n1C1(C)CC1` (single isomer, unassigned) [Example 131.0, (1R,2S)-1-methoxy-N-(4-(1-methylcyclopropyl)-5-((R)-tetrahydro-2H-pyran-3-yl)-4H-1,2,4-triazol-3-yl)-1-(5-methylpyrazin-2-yl)propane-2-sulfonamide or (1R,2S)-1-methoxy-N-(4-(1-methylcyclopropyl)-5-((S)-tetrahydro-2H-pyran-3-yl)-4H-1,2,4-triazol-3-yl)-1-(5-methylpyrazin-2-yl)propane-2-sulfonamide] it was 550 nM; in that of `COc1cccc(OC)c1-n1c(NS(=O)(=O)[C@@H](C)[C@H](C)c2cnc(C)cn2)nnc1[C@H]1CCOC1` (single isomer, unassigned) [Example 132.0, (2S,3R)-N-(4-(2,6-dimethoxyphenyl)-5-((R)-tetrahydrofuran-3-yl)-4H-1,2,4-triazol-3-yl)-3-(5-methylpyrazin-2-yl)butane-2-sulfonamide or (2S,3R)-N-(4-(2,6-dimethoxyphenyl)-5-((S)-tetrahydrofuran-3-yl)-4H-1,2,4-triazol-3-yl)-3-(5-methylpyrazin-2-yl)butane-2-sulfonamide], 140 nM; in that of `COc1cccc(OC)c1-n1c(NS(=O)(=O)[C@@H](C)[C@H](C)c2cnc(C)cn2)nnc1[C@H]1CCOC1` (single isomer, unassigned) [Example 133.0, (2S,3R)-N-(4-(2,6-dimethoxyphenyl)-5-((R)-tetrahydrofuran-3-yl)-4H-1,2,4-triazol-3-yl)-3-(5-methylpyrazin-2-yl)butane-2-sulfonamide or (2S,3R)-N-(4-(2,6-dimethoxyphenyl)-5-((S)-tetrahydrofuran-3-yl)-4H-1,2,4-triazol-3-yl)-3-(5-methylpyrazin-2-yl)butane-2-sulfonamide], 320 nM.
With `COc1cccc(OC)c1-n1c(NS(=O)(=O)[C@@H](C)[C@H](C)c2cnc(C)cn2)nnc1[C@H]1CCCOC1` (single isomer, unassigned) [Example 134.0, (2S,3R)-N-(4-(2,6-dimethoxyphenyl)-5-((R)-tetrahydro-2H-pyran-3-yl)-4H-1,2,4-triazol-3-yl)-3-(5-methylpyrazin-2-yl)butane-2-sulfonamide or (2S,3R)-N-(4-(2,6-dimethoxyphenyl)-5-((S)-tetrahydro-2H-pyran-3-yl)-4H-1,2,4-triazol-3-yl)-3-(5-methylpyrazin-2-yl)butane-2-sulfonamide], the EC50 was 400 nM.
Regarding `COc1cccc(OC)c1-n1c(NS(=O)(=O)[C@@H](C)[C@H](C)c2cnc(C)cn2)nnc1[C@H]1CCCOC1` (single isomer, unassigned) [Example 135.0, (2S,3R)-N-(4-(2,6-dimethoxyphenyl)-5-((R)-tetrahydro-2H-pyran-3-yl)-4H-1,2,4-triazol-3-yl)-3-(5-methylpyrazin-2-yl)butane-2-sulfonamide or (2S,3R)-N-(4-(2,6-dimethoxyphenyl)-5-((S)-tetrahydro-2H-pyran-3-yl)-4H-1,2,4-triazol-3-yl)-3-(5-methylpyrazin-2-yl)butane-2-sulfonamide], the concentration for a half-maximal effect (EC50) is 35 nM.
For `COc1cccc(OC)c1-n1c(NS(=O)(=O)[C@@H](C)[C@@H](OC(C)C)c2ncc(C)cn2)nnc1[C@H]1CCCOC1` (single isomer, unassigned) [Example 136.0, (1S,2S)-N-(4-(2,6-dimethoxyphenyl)-5-((R)-tetrahydro-2H-pyran-3-yl)-4H-1,2,4-triazol-3-yl)-1-isopropoxy-1-(5-methylpyrimidin-2-yl)propane-2-sulfonamide or (1S,2S)-N-(4-(2,6-dimethoxyphenyl)-5-((S)-tetrahydro-2H-pyran-3-yl)-4H-1,2,4-triazol-3-yl)-1-isopropoxy-1-(5-methylpyrimidin-2-yl)propane-2-sulfonamide], the EC50 stood at 130 nM.
As for `COc1cccc(OC)c1-n1c(NS(=O)(=O)[C@@H](C)[C@@H](OC(C)C)c2ncc(C)cn2)nnc1[C@H]1CCCOC1` (single isomer, unassigned) [Example 137.0, (1S,2S)-N-(4-(2,6-dimethoxyphenyl)-5-((R)-tetrahydro-2H-pyran-3-yl)-4H-1,2,4-triazol-3-yl)-1-isopropoxy-1-(5-methylpyrimidin-2-yl)propane-2-sulfonamide or (1S,2S)-N-(4-(2,6-dimethoxyphenyl)-5-((S)-tetrahydro-2H-pyran-3-yl)-4H-1,2,4-triazol-3-yl)-1-isopropoxy-1-(5-methylpyrimidin-2-yl)propane-2-sulfonamide], the EC50 came out at 4.8 nM.
